# Test results published in ChEMBL document CHEMBL5537136 (J Med Chem, 2024).
# Calls of active or inactive are those of the source. The calls are words filed in the database; no cut-off is given here.
# Assays:
# [1] = target: T1, Protein mono-ADP-ribosyltransferase TIPARP (Mus musculus) (UniProt Q8C1B2); test: Inhibition of PARP7 in mouse CT26 cells assessed as increase in TBK1 phosphorylation incubated for 3 days by Western blot analysis; format: cell-based; settings: dose 0.14-4 µM, time 3.0 day
# T1 sequence (whole entry): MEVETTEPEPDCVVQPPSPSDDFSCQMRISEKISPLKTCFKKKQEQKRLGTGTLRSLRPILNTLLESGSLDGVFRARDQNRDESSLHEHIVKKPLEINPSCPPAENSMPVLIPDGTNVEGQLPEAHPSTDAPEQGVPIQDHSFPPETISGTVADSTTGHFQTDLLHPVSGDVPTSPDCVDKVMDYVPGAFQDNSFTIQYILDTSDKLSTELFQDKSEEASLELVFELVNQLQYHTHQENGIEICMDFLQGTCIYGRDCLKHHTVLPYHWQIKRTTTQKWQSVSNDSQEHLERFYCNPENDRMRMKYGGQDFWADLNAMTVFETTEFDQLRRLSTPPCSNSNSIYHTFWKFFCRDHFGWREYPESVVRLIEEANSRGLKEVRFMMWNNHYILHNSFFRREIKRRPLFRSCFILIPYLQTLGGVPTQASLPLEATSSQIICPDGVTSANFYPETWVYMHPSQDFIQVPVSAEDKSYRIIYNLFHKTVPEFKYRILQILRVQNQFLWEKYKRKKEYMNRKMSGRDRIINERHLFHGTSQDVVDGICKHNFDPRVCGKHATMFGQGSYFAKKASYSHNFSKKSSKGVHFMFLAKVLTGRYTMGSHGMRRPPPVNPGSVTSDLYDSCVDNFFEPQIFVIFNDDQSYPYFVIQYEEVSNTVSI
# [2] = target: T2, Poly [ADP-ribose] polymerase tankyrase-1 (Homo sapiens, UniProt O95271); test: Inhibition of TNKS1 (unknown origin) measured after 1 hr incubation by microplate reader assay
# T2 sequence (O95271 whole entry): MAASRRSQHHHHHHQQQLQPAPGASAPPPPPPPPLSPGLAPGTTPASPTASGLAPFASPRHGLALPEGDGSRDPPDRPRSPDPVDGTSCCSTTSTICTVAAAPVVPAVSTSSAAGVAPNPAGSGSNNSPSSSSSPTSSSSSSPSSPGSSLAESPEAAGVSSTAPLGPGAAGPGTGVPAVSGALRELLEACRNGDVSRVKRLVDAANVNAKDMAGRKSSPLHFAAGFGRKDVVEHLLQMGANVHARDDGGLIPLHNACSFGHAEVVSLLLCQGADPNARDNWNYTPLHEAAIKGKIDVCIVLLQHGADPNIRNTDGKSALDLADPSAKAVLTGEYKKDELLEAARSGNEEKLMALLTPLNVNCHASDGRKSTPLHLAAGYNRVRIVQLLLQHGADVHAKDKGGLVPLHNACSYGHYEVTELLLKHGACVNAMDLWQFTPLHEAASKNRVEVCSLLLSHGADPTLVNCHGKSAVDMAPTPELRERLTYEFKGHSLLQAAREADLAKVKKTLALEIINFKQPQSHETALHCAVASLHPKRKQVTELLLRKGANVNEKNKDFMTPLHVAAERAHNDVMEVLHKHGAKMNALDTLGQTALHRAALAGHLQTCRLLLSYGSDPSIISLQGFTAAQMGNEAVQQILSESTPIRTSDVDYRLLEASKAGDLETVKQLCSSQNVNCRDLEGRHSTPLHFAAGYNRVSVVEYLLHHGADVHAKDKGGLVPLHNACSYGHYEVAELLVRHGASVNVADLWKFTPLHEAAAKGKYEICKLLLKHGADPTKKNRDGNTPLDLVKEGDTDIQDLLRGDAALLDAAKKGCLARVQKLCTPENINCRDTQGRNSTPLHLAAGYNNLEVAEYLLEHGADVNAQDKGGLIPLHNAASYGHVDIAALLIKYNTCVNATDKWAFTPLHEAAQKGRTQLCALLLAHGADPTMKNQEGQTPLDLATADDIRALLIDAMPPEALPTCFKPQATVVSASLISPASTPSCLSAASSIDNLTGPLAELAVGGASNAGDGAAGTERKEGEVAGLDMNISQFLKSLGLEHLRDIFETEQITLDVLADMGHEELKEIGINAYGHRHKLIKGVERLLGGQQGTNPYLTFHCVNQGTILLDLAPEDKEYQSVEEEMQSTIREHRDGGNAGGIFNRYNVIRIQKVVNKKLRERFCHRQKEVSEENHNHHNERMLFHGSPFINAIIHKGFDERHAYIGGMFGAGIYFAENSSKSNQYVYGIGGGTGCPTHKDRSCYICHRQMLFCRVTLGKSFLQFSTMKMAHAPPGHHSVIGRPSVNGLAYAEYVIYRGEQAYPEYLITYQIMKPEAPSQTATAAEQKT
# [3] = MRT (0 to infinity) in ICR mouse at 10 mg/kg, IG measured upto 24 hrs by LC-MS/MS analysis; format: ADME, organism-based; settings: in vivo, po
# [4] = C0 in ICR mouse at 1 mg/kg, iv measured upto 24 hrs by LC-MS/MS analysis; format: ADME, organism-based; settings: in vivo
# CT26 [5] = test: Antitumor activity against mouse CT26 cells implanted in Balb/c mouse assessed as increase in infiltration of CD3 positive CD8 positive T lymphocytes in tumors at 25 mg/kg, IG measured after 14 days by flow cytometry; format: functional, organism-based; settings: time 14.0 day
# [6] = Toxicity in Balb/c mouse bearing mouse CT26 cells assessed as morphological changes in spleen at 6.25 to 25 mg/kg, IG measured after 14 days by hematoxylin and eosin staining based assay; format: organism-based; settings: in vivo, po, 336 h, dose 6.25-25 mg/kg, time 14 day
# [7] = Cmax in ICR mouse at 1 mg/kg, iv measured upto 24 hrs by LC-MS/MS analysis; format: ADME, organism-based; settings: in vivo
# CYP3A4/5 = CYP3A4/5 (Homo sapiens, UniProt P08684+P20815); test: Inhibition of CYP3A4/5 (unknown origin); format: ADME, protein assay
# CT26 [8] = test: cells; settings: Mus musculus, CT26, 144 h
# [9] = Toxicity in Balb/c mouse bearing mouse CT26 cells assessed as morphological changes in lung at 6.25 to 25 mg/kg, IG measured after 14 days by hematoxylin and eosin staining based assay; format: organism-based; settings: in vivo, po, 336 h, dose 6.25-25 mg/kg, time 14 day
# [10] = Tmax in ICR mouse at 10 mg/kg, IG measured upto 24 hrs by LC-MS/MS analysis; format: ADME, organism-based; settings: in vivo, po
# [11] = Permeability across apical to basolateral side in human Caco-2 cells; format: ADME, cell-based
# CT26 [12] = test: Antitumor activity in immunocompetent mouse CT26 cell bearing mouse model assessed as tumor growth inhibition at 6.25 mg/kg, IG treated twice a day measured after 14 days relative to control; format: functional; settings: CT26, po, 336 h, time 14 day, read-out: TGI
# CT26 [13] = test: Antitumor activity in immunocompetent mouse CT26 cell bearing mouse model assessed as tumor growth inhibition at 12.5 mg/kg, IG treated twice a day measured after 14 days relative to control; format: functional; settings: CT26, po, 336 h, time 14 day, read-out: TGI
# [14] = target: Protein mono-ADP-ribosyltransferase PARP14 (Homo sapiens, UniProt Q460N5); test: Inhibition of PARP14 (unknown origin) measured after 1 hr incubation by microplate reader assay
# Sequence of Protein mono-ADP-ribosyltransferase PARP14 (Q460N5 whole entry): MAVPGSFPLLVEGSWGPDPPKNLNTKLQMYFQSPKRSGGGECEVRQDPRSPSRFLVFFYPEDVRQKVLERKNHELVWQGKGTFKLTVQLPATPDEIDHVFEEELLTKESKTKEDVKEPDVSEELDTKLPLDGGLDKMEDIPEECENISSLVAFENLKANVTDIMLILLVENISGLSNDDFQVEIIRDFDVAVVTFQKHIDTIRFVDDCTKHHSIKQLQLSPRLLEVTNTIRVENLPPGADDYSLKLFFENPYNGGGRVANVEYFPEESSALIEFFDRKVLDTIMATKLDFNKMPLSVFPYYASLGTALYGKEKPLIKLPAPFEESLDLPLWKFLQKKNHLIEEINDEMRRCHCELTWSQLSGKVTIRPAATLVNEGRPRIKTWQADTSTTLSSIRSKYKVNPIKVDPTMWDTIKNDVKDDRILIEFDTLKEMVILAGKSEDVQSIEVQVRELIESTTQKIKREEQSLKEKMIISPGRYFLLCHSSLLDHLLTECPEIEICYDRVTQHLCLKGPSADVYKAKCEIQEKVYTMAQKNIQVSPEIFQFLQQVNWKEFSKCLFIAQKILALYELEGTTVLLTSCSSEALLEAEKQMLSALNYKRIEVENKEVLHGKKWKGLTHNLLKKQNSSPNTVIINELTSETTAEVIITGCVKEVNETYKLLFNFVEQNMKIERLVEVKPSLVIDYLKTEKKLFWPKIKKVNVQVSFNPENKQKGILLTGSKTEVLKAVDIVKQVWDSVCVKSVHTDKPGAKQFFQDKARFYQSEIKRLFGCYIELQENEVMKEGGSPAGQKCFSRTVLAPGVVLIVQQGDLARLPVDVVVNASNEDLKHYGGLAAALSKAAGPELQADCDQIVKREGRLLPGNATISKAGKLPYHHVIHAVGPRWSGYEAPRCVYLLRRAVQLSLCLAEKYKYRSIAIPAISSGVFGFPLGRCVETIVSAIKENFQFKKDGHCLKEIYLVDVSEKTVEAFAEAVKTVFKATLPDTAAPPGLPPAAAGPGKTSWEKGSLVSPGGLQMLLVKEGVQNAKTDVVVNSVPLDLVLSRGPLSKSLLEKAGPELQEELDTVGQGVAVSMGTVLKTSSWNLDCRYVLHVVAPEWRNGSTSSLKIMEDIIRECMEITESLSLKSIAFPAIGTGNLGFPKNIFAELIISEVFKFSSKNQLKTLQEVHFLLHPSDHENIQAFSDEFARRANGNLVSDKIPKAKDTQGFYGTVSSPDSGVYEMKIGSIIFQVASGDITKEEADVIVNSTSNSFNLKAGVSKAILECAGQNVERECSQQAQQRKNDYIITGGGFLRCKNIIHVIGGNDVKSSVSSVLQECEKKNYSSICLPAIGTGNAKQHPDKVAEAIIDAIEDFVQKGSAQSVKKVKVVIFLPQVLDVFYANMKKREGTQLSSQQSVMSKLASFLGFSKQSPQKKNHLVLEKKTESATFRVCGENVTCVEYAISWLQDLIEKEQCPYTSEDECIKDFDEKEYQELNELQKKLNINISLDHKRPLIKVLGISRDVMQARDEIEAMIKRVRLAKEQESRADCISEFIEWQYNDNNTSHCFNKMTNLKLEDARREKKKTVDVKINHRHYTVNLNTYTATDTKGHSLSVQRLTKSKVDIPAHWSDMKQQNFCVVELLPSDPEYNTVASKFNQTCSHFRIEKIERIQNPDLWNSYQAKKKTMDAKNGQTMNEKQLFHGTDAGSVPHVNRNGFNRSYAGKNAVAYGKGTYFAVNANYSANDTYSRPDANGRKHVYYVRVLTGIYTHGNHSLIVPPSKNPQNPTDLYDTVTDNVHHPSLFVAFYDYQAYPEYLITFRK
smiles,measurement,setting,value
C[C@@H](C(=O)N1CCN(c2ncc(C(F)(F)F)cn2)CC1)n1cc2cccc(C(N)=O)c2n1,inhibition,[1],Dose-Dependent Effect
same,IC50,[2],0.901 µM
same,MRT inf,[3],2.52 h
same,C0 at 24 h,[4],1590 ng/mL
same,Activity,CT26 [5],Active
same,Activity,[6],Non-Toxic
same,Cmax,[7],1360 ng/mL
same,IC50,CYP3A4/5,> 30 µM
same,IC50,CT26 [8],36.1 µM
same,Activity,[9],Non-Toxic
same,Tmax,[10],0.5 h
same,Papp A→B,[11],25.7 ×10⁻⁶ cm/s
same,inhibition in vivo at 6.25 mg/kg,CT26 [12],42%
same,inhibition in vivo at 12.5 mg/kg,CT26 [13],53%
same,IC50,[14],> 1.3 µM
